Experimental findings from US11691992B2 (Anacor Pharmaceuticals, Inc., priority 2017, dated 2023) are described below.

What all share (assay type): cell-based
Experiment [1] deals with IL3000 T. congolense (drug sensitive) strain. Kind of experiment: In vitro Alamar Blue 72 h drug sensitivity assay for T. congolense. The note with it: Trypanosoma congolense; bloodstream form, 69 h + 3 h resazurin, 34° C.; classes A-C; read-out: IC50: I Org. Growth T. congolense IL-3000, 3 d. The method, boiled down: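 Bloodstream-form trypanosomes in HMI medium with 20% bovine serum, exposed to compound for 69 h at 34 °C, 5% CO2, then resazurin for 3 h more. Fluorescence read at 536/588 nm. IC50 from 11-point sigmoidal dose-response curves, at least three independent runs.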
For orientation: Alamar Blue is a resazurin reagent that responds to reducing activity.

Experiment [2] deals with promastigote forms of L. major. Description: Leishmania major promastigote growth inhibition assay (Alamar Blue). As to conditions: promastigotes, 44 hours + 4 hours Alamar Blue, read-out: IC50: I Org. promastigote Growth L. major, 2 d. From the text: Example 108. Leishmania major Promastigote Growth Inhibition Assay
The promastigote assay is a microtiter plate drug sensitivity prescreen assay used to determine antileishmanial activity of candidate drugs against promastigote forms of L. major. (Shadow et al., PLOS Neglected Tropical Diseases, 2009, e311.) Alamar Blue, or resazurin, is a non-fluorescent indicator dye that is converted to bright red-fluorescent resorufin via the activity of mitochondrial reductases. As the activity of mitochondrial reductases is reduced in cells that are dead or dying, and the intensity of the fluorescence is relative to cell number, a test compound that kills or inhibits growth of a particular target cell, such as L. major, will result in a lower production of fluorescent signal. Pre-dosed microtiter drug plates for use in the promastigote drug prescreen assay were produced using sterile 384-well black optical bottom tissue culture plates (Nunc Cat #12-565-344). Candidate drugs were diluted in dimethyl sulfoxide in four 96-well plates to either 10,000 ng/ml or 1,000 ng/ml, and 4.25 μL of diluted drug was subsequently dispensed into each well of a 384-well plate. Duplicate 384 well plates were made at each test concentration (10,000 ng/mL and 1,000 ng/mL) and amphotericin B was used as a batch control. The Tecan EVO Freedom liquid handling system (Tecan US, Inc., Durham, N.C.) was used to produce all drug assay plates and conduct all pipetting operations for this assay. L. major parasites were cultured in Schneider's medium (Lonza Cat #04-351Q) supplemented with 20% heat inactivated FBS (Invitrogen Cat #16140-089). Promastigotes in early log growth phase were harvested from culture, counted, suspended at 1.32×10^5 cells/mF and 5,000 promastigotes were dispensed into each well of the 384 well plate in a volume of 38.8 μL. The 384 well plates were subsequently incubated at 28° C. for 44 hours. 8.4 μF of Alamar Blue (Promega, Cat #G8081) was added to each well, the plates were subsequently incubated at 28° C. and 5% CO2 for 4 hours and then examined for the relative fluorescence units (RFU) per well using the Tecan Genios Plus (Tecan US, Inc., Durham, N.C.) with excitation set at 560 nm and emission set at 590 nm. The relative fluorescence from each well was used to determine the percent growth inhibition of each candidate compound tested. Compounds with 50% or greater inhibition of growth were selected for further analysis to determine IC50 values.

The test system of experiment [3] is TdTomato-modified T. cruzi (CL strain) in Vero cells. Description: In vitro IC50 measurement of T. cruzi amastigote killing using TdTomato-modified T. cruzi (CL strain). The note with it: Trypanosoma cruzi, 72 h, fluorescence, read-out: IC50: I Org. amastigote Growth T. cruzi CL TdTomato, 3 d. The method in brief:
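Vero cells were infected with tdTomato-expressing CL-strain parasites and dosed at 5 uM–5 nM. Fluorescence (ex 544/em 612 nm) was read at day 0 and again after 72 h at 37 °C, with day 0 values subtracted. IC50 and IC90 came from nonlinear regression.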

For orientation: IC50 means the concentration needed to halve the response being measured. Turning to `CC1OB(O)c2cc(NC(=O)c3cn(-c4ccccc4)nn3)ccc21` (stereo not shown) [Example 2], the figures for the IC50 in experiment [1], in experiment [2] and in experiment [3] were < 100 nM, < 600 nM and < 600 nM, respectively.

For `O=C(Nc1ccc2c(c1)B(O)OC21CCC1)c1cn(-c2ccccc2)nn1` [Example 3, N-(1-hydroxy-1H-spiro[benzo[c][1,2]oxaborole-3,1′-cyclobutan]-6-yl)-1-phenyl-1H-1,2,3-triazole-4-carboxamide], the IC50 fell in the range of 100 to 300 nM in experiment [1], 600 to 2500 nM in experiment [2] and 1100 to 10000 nM in experiment [3].

For the compound `Cc1c(C(=O)Nc2ccc3c(c2)B(O)OC32CCC2)nnn1-c1ccccc1` [Example 4, N-(1-hydroxy-1H-spiro[benzo[c][1,2]oxaborole-3,1′-cyclobutan]-6-yl)-5-methyl-1-phenyl-1H-1,2,3-triazole-4-carboxamide], the IC50 was 100 to 300 nM in experiment [1], 600 to 2500 nM in experiment [2] and 600 to 1000 nM in experiment [3].

Consider `CC1OB(O)c2cc(NC(=O)c3cn(-c4ccc(F)cc4)nn3)ccc21` (stereo not shown) [Example 5], for which the figures for the half-maximal inhibitory concentration (IC50) in experiment [1], in experiment [2] and in experiment [3] were 100 to 300 nM, 600 to 2500 nM and 600 to 1000 nM, respectively.

For the compound `Cc1c(C(=O)Nc2ccc3c(c2)B(O)OC3C)nnn1-c1ccc(F)cc1` (stereo not shown) [Example 6, 1-(4-fluorophenyl)-N-(1-hydroxy-3-methyl-1,3-dihydrobenzo[c][1,2]oxaborol-6-yl)-5-methyl-1H-1,2,3-triazole-4-carboxamide], the IC50 in experiment [1] was in the range of 100 to 300 nM; in experiment [2] it was 600 to 2500 nM; in experiment [3] it was 600 to 1000 nM.

For `O=C(Nc1ccc2c(c1)B(O)OC21CCC1)c1cn(-c2ccc(F)cc2)nn1` [Example 7, 1-(4-fluorophenyl)-N-(1-hydroxy-1H-spiro[benzo[c][1,2]oxaborole-3,1′-cyclobutan]-6-yl)-1H-1,2,3-triazole-4-carboxamide], the IC50 lay within 310 to 100000 nM in experiment [1], 2510 to 20000 nM in experiment [2] and 1100 to 10000 nM in experiment [3].

On to `O=C(Nc1ccc2c(c1)B(O)OC2)c1cn(-c2ccc(F)cc2)nn1` [Example 60, 1-(4-Fluorophenyl)-N-(1-hydroxy-1,3-dihydrobenzo[c][1,2]oxaborol-6-yl)-1H-1,2,3-triazole-4-carboxamide], for which, in experiment [1], the IC50 is < 100 nM.

Turning to `O=C(Nc1ccc2c(c1)B(O)OC2)c1nnn(-c2ccccc2F)c1C(F)(F)F` [Example 67, 1-(2-Fluorophenyl)-N-(1-hydroxy-1,3-dihydrobenzo[c][1,2]oxaborol-6-yl)-5-(trifluoromethyl)-1H-1,2,3-triazole-4-carboxamide], in experiment [1], the IC50 is 100 to 300 nM.

In the case of `O=C(Nc1ccc2c(c1)B(O)OC2)c1nnn(-c2cccc(F)c2)c1C(F)(F)F` [Example 69, 1-(3-Fluorophenyl)-N-(1-hydroxy-1,3-dihydrobenzo[c][1,2]oxaborol-6-yl)-5-(trifluoromethyl)-1H-1,2,3-triazole-4-carboxamide], in experiment [1], the IC50 is 100 to 300 nM.

Regarding `O=C(Nc1ccc2c(c1)B(O)OC2)c1nnn(-c2ccc(F)cc2)c1C(F)(F)F` [Example 70, 1-(4-Fluorophenyl)-N-(1-hydroxy-1,3-dihydrobenzo[c][1,2]oxaborol-6-yl)-5-(trifluoromethyl)-1H-1,2,3-triazole-4-carboxamide], the IC50 in experiment [1] was 100 to 300 nM.

Consider `O=C(Nc1ccc2c(c1)B(O)OC2)c1nnn(-c2cccnc2)c1C(F)(F)F` [Example 71, N-(1-hydroxy-1,3-dihydrobenzo[c][1,2]oxaborol-6-yl)-1-(pyridin-3-yl)-5-(trifluoromethyl)-1H-1,2,3-triazole-4-carboxamide], for which the IC50 in experiment [1] is < 100 nM.

In the case of `COc1ccc(-n2nnc(C(=O)Nc3ccc4c(c3)B(O)OC4)c2C)cc1` [Example 91, N-(1-hydroxy-1,3-dihydrobenzo[c][1,2]oxaborol-6-yl)-1-(4-methoxyphenyl)-5-methyl-1H-1,2,3-triazole-4-carboxamide], the IC50 in experiment [1] is 100 to 300 nM; in experiment [2], < 600 nM.
